Common to all, as to assay type: biochemical
One assay deals with T1, KRAS G12V (Homo sapiens, UniProt P01116, G12V).
T1 construct: made in house; host or cells: E. coli, e.g. BL21 (DE3)
Description: HTRF KRAS-SOS1 interaction assay, KRAS G12V. To be noted: binned ≤2 μM / >2 μM, read-out: Inhibition of KRAS G12V (IC50). In outline:
(§1)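 Inhibition of the KRAS–SOS1 interaction was measured by HTRF (ex 337, em 620/665 nm) after ≥~10 min incubation. Donor: anti-GST-Eu on GST-KRAS; acceptor: anti-6His-XL665 on His-hSOS1, in HEPES pH 7.4 buffer with DTT, BSA and Igepal. Compounds in duplicate at 0.01–10 μM; IC50 from emission ratio.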
Background: In TR-FRET formats the signal depends on donor and acceptor labels being close together.

The target in the next assay is T2, KRAS G12D (Homo sapiens, UniProt P01116, G12D).
T2 construct: made in house; host or cells: E. coli, e.g. BL21 (DE3)
The assay is described as follows: HTRF KRAS-SOS1 interaction assay, KRAS G12D. To be noted: binned ≤2 μM / >2 μM, read-out: Inhibition of KRAS G12D (IC50). Summed up: as §1

The target in another assay is T3, KRAS G12S (Homo sapiens, UniProt P01116, G12S).
T3 construct: made in house; host or cells: E. coli, e.g. BL21 (DE3)
The assay is described as follows: HTRF KRAS-SOS1 interaction assay, KRAS G12S. To be noted: binned ≤2 μM / >2 μM, read-out: Inhibition of KRAS G12S (IC50). Summed up: as §1

The target of a further assay is T4, KRAS WT (Homo sapiens, UniProt P01116).
T4 construct: made in house; host or cells: E. coli, e.g. BL21 (DE3)
Description: HTRF KRAS-SOS1 interaction assay, wildtype KRAS. To be noted: binned ≤2 μM / >2 μM, read-out: Inhibition of KRAS WT (IC50). Summed up:
as §1

The structures appear in SMILES notation.

T3 sequence (P01116 1-188 isoform P01116-2 G12S): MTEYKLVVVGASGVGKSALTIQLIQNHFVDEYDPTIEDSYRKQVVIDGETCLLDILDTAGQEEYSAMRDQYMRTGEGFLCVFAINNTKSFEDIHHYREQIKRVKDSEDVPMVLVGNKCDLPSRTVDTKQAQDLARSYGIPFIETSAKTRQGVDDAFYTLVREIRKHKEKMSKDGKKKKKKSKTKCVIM
T4 sequence (P01116 1-188 isoform P01116-2): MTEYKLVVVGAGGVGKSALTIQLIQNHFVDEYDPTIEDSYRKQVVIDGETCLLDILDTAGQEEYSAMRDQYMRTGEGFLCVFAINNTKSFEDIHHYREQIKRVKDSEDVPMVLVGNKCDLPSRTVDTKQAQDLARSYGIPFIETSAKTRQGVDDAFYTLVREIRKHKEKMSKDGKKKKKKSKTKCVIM
T1 sequence (P01116 1-188 isoform P01116-2 G12V): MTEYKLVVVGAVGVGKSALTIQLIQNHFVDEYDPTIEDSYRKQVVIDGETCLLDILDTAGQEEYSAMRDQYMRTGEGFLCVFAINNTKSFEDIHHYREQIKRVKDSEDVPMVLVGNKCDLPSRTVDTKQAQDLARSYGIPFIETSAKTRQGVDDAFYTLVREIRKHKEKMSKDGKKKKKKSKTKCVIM
T2 sequence (P01116 1-188 isoform P01116-2 G12D): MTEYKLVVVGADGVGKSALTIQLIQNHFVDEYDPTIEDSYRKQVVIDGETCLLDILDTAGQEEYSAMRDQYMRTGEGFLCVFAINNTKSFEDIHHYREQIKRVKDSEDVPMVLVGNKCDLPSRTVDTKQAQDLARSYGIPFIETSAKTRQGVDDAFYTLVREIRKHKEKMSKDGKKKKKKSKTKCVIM

As usually defined, the IC50 is the point on the concentration scale where inhibition reaches its midpoint. Consider `C[C@H](c1cc(C#N)cnc1N)N1CCOc2c(Cl)c(-c3ccc(F)c4sc(N)c(C#N)c34)c(F)c3nc(OC[C@@]45CCCN4C[C@H](F)C5)nc1c23` [Compound 873, 6-amino-5-((1R)-1-(9-(2-amino-3-cyano-7-fluorobenzo[b]thiophen-4-yl)-8-chloro-10-fluoro-2-(((2R,7aS)-2-fluorotetrahydro-1H-pyrrolizin-7a(5H)-yl)methoxy)-5,6-dihydro-4H-[1,4]oxazepino[5,6,7-de]quinazolin-4-yl)ethyl)nicotinonitrile], for which the IC50 on KRAS G12V, at KRAS G12D, on KRAS G12S and on KRAS WT was no more than 2000 nM in each case.

With `C[C@H](c1cccnc1N)N1CCOc2c(Cl)c(-c3ccc(F)c4sc(N)c(C#N)c34)c(F)c3nc(OC[C@@H]4CCCN4C)nc1c23` (single isomer, unassigned) [Compound 641], the IC50 on KRAS G12V, at KRAS G12D, at KRAS G12S and at KRAS WT was no more than 2000 nM each time.

For the molecule `C[C@H](c1cncnc1N)N1CCOc2c(C(F)(F)F)c(-c3ccc(F)c4sc(N)c(C#N)c34)c(F)c3nc(OCC4(CN5CCC(F)CC5)CC4)nc1c23` [Compound 908, 2-amino-4-(4-((R)-1-(4-aminopyrimidin-5-yl)ethyl)-10-fluoro-2-((1-((4-fluoropiperidin-1-yl)methyl)cyclopropyl)methoxy)-8-(trifluoromethyl)-5,6-dihydro-4H-[1,4]oxazepino[5,6,7-de]quinazolin-9-yl)-7-fluorobenzo[b]thiophene-3-carbonitrile], the IC50 on KRAS G12V, on KRAS G12D, at KRAS G12S and on KRAS WT was no more than 2000 nM in each case.

Take `C[C@H](c1cccnc1N)N1CCOc2c(C(F)(F)F)c(-c3ccc(F)c4sc(N)c(C#N)c34)c(F)c3nc(OCC4(CN5CCC(F)CC5)CC4)nc1c23` [Compound 836, 2-amino-4-(4-((R)-1-(2-aminopyridin-3-yl)ethyl)-10-fluoro-2-((1-((4-fluoropiperidin-1-yl)methyl)cyclopropyl)methoxy)-8-(trifluoromethyl)-5,6-dihydro-4H-[1,4]oxazepino[5,6,7-de]quinazolin-9-yl)-7-fluorobenzo[b]thiophene-3-carbonitrile]: the IC50 at KRAS G12V, on KRAS G12D, on KRAS G12S and on KRAS WT was no more than 2000 nM each time.

As for `C#Cc1c(F)ccc2cc(O)cc(-c3nc4c5c(nc(OC[C@@H]6CCCN6C)nc5c3F)N(C(C)c3cccnc3N)CCO4)c12` (single isomer, unassigned) [Compound 728], the IC50 on KRAS G12V, on KRAS G12D, on KRAS G12S and at KRAS WT was no more than 2000 nM each time.

On to `C[C@H](c1cc(Cl)cnc1N)N1CCOc2c(C(F)(F)F)c(-c3ccc(F)c4sc(N)c(C#N)c34)c(F)c3nc(OC[C@@]45CCCN4C[C@H](F)C5)nc1c23` (single isomer, unassigned) [Compound 702], for which the IC50 on KRAS G12V, on KRAS G12D, at KRAS G12S and at KRAS WT was greater than 2000 nM throughout.

Regarding `C[C@H](c1cccnc1N)N1CCOc2nc(-c3ccc(F)c4sc(N)c(C#N)c34)c(F)c3nc(OC[C@@]45CCCN4C[C@H](F)C5)nc1c23` (single isomer, unassigned) [Compound 619], the IC50 at KRAS G12V, at KRAS G12D, at KRAS G12S and on KRAS WT was no more than 2000 nM each time.

For `C[C@H](c1cncnc1N)N1CCOc2c(C(F)(F)F)c(-c3ccc(F)c4sc(N)c(C#N)c34)c(F)c3nc(OC[C@@]45CCCN4C[C@H](F)C5)nc1c23` (single isomer, unassigned) [Compound 777], the IC50 at KRAS G12V, at KRAS G12D, at KRAS G12S and at KRAS WT was no more than 2000 nM throughout.

Turning to `C[C@H](c1cc(Cl)cnc1N)N1CCOc2c(C(F)(F)F)c(-c3ccc(F)c4sc(N)c(C#N)c34)c(F)c3nc(OC[C@@]45CCCN4C[C@H](F)C5)nc1c23` (single isomer, unassigned) [Compound 766], the IC50 at KRAS G12V, on KRAS G12D, on KRAS G12S and on KRAS WT was no more than 2000 nM throughout.

As for `N#Cc1c(N)sc2c(F)ccc(-c3c(C(F)(F)F)c4c5c(nc(OC[C@@]67CCCN6CC(=C(F)F)C7)nc5c3F)N([C@H](CCC(F)(F)F)c3cc(F)cnc3N)CCO4)c12` [Compound 640, 2-amino-4-(4-((R)-1-(2-amino-5-fluoropyridin-3-yl)-4,4,4-trifluorobutyl)-2-(((S)-2-(difluoromethylene)tetrahydro-1H-pyrrolizin-7a(5H)-yl)methoxy)-10-fluoro-8-(trifluoromethyl)-5,6-dihydro-4H-[1,4]oxazepino[5,6,7-de]quinazolin-9-yl)-7-fluorobenzo[b]thiophene-3-carbonitrile], the IC50 at KRAS G12V, on KRAS G12D, at KRAS G12S and at KRAS WT was no more than 2000 nM in each case.

As to `N#Cc1c(N)sc2c(F)ccc(-c3c(C(F)(F)F)c4c5c(nc(OCC6(CN7CCC(=CF)CC7)CC6)nc5c3F)N([C@H](CCC3CCOCC3)c3cccnc3N)CCO4)c12` [Compound 905, 2-amino-4-(4-((R)-1-(2-aminopyridin-3-yl)-3-(tetrahydro-2H-pyran-4-yl)propyl)-10-fluoro-2-((1-((4-(fluoromethylene)piperidin-1-yl)methyl)cyclopropyl)methoxy)-8-(trifluoromethyl)-5,6-dihydro-4H-[1,4]oxazepino[5,6,7-de]quinazolin-9-yl)-7-fluorobenzo[b]thiophene-3-carbonitrile], the IC50 on KRAS G12V, on KRAS G12D, on KRAS G12S and at KRAS WT was no more than 2000 nM in each case.

For `CNc1sc2c(F)ccc(-c3c(C(F)(F)F)c4c5c(nc(OC[C@@]67CCCN6C[C@H](F)C7)nc5c3F)N([C@H](CCC3CCOCC3)c3cccnc3N)CCO4)c2c1C#N` [Compound 709, 4-(4-((R)-1-(2-aminopyridin-3-yl)-3-(tetrahydro-2H-pyran-4-yl)propyl)-10-fluoro-2-(((2R,7aS)-2-fluorotetrahydro-1H-pyrrolizin-7a(5H)-yl)methoxy)-8-(trifluoromethyl)-5,6-dihydro-4H-[1,4]oxazepino[5,6,7-de]quinazolin-9-yl)-7-fluoro-2-(methylamino)benzo[b]thiophene-3-carbonitrile], the IC50 on KRAS G12V, at KRAS G12D, on KRAS G12S and at KRAS WT was no more than 2000 nM throughout.

Regarding `C[C@H](c1cccnc1N)N1CCOc2c(C(F)(F)F)c(-c3ccc(F)c4sc(N)c(C#N)c34)c(F)c3nc(OCC4(CN5CCC(=C(F)F)CC5)CC4)nc1c23` (single isomer, unassigned) [Compound 884], the IC50 on KRAS G12V, at KRAS G12D, on KRAS G12S and at KRAS WT was greater than 2000 nM in each case.

The values are drawn from patent publication US12668600B2 (Kumquat Biosciences Inc., priority 2023, dated 2026).
